Experimental data published in patent US20240299505A1, “COMPOSITION FOR IMPROVING, PREVENTING OR TREATING INFLAMMATORY BOWEL DISEASE COMPRISING NAMPT-DERIVED PEPTIDE AS ACTIVE INGREDIENT” (Industry-University Cooperation Foundation Hanyang …, priority 2023, published 2024).

Key:
[1] = system: NLRP3 inflammasome signal 1; test: NLRP3 inflammasome signal 1 in LPS-treated BMDMs (IB, FACS ROS, cytokine ELISA); assay type: cell-based, mice; conditions: for production of cytokines (NF-κB-induced): ELISA of supernatants; for generation of ROS: FACS
Protocol: (§1) FIG. 4 confirms that NAMPT-derived peptides inhibit activation of signal 1 and 2 of NLRP3. Specifically, (A-C) BMDMs were stimulated with LPS for 4 hours and pretreated with rNAMPT for 1 hour (A, B) or 18 hours (C). (A) WCLs were used for IB with αIkB-α, αP-IkB-α, or αActin. (B) FACS analysis for H2O2 (probe for 2′,7′-dichlorofluorescin diacetate) or O^2− (probe for dihydroethidium). Quantitative analysis (upper) of mean fluorescence intensities of H2O2 and O^2− and NADPH oxidase activity (lower), (C) Culture supernatants (SN) were harvested and analyzed for cytokine ELISA. (D, E) LPS-primed BMDMs were treated with rNAMPT for 1 hour and then activated with ATP for 30 minutes. (D) ELISA for IL-1β and IL-18. (E) IB in SN with αIL-1β p17, αIL-18 p18, or αCasp1 p10 and IB of WCL with αPro-IL-1β, αPro-IL-18, αPro-Casp1, or αActin. […] Data come from three independent experiments that yielded similar results. (B-D) Data are provided as mean±SD of three experiments. Significance difference compared to LPS+PBS (*p<0.05; **p<0.01; ***p<0.001);
(§2) FIG. 5 illustrates results confirming an effect of TAT-NAMPT or NAMPT peptide on inflammation. Specifically, (A) BMDMs were stimulated with LPS (100 ng/ml) for 18 hours and pretreated with rNAMPT for 1 hour. Culture supernatants were collected and analyzed for cytokine ELISA. (B) LPS-primed BMDMs were treated with rNAMPT for 1 hour and then activated with nigericin for 30 minutes and DSS for 24 hours. ELISA for IL-1B and IL-18. […] The shown data are the mean±SD of three experiments. Significant difference comparing LPS+PBS (*p<0.05; **p<0.01; ***p<0.001);
Primary bone marrow-derived macrophages (BMDMs) were harvested from mice and cultured in DMEM in the presence of M-CSF (R&D Systems, 416-ML) for 3 to 5 days. HEK293T cells (ATCC-11268; American Type Culture Collection) were cultured in DMEM (Gibco) containing 10% FBS (Gibco), nonessential amino acids, sodium pyruvate, streptomycin (100 μg/mL) and penicillin G (100 IU/mL).
Polypeptides were separated by SDS-polyacrylamide gel electrophoresis and then transferred to a PVDF membrane for immunoblotting (IB) (Bio-Rad, Hercules, CA, USA). For immunodetection, specific antibodies were required, and Chemiluminescence (ECL; Millipore, MA, USA) was used to visualize an antibody bound to a target. In addition, a Vilber chemiluminescence analyzer was used to detect the antibody (Fusion SL3; Vilber Lourmat, Colégien, France).
Flow cytometry was used to quantify intracellular ROS levels. The cells were cultured in a serum-free medium and stained with 2 μM dihydroethidium (DHE for O^2−; Calbiochem) or 1 μM 2′,7′-dichlorodihydrofluorescein diacetate (H2DCFDA for H2O2; Calbiochem) as a redox-sensitive dye. mAbs were incubated at 4° C. for 20 to 30 minutes to determine cell surface protein expression, and cells were fixed using a Cytofix/Cytoperm Solution (BD Biosciences), and in a specific case, mAb incubation was performed to detect intracellular proteins. The used mAb clones were the following: ITGA6 (GoH3, BD Pharmingen™) and ITGB1 (HMβ1-1, BD Pharmingen™). The cells were washed completely and quickly with pulse spinning before being analyzed in a FACS Calibur (BD Biosciences, San Jose, CA, USA). CellQuest software (BD Biosciences) was used to visualize the data, and FlowJo software was used to analyze the data (Tree Star, Ash-land, OR, USA).
TNF-α, IL-6, IL-1β and IL-18 levels were measured in cell culture supernatants and mouse serum using the BD OptEIA ELISA system (BD Pharmingen). All experiments were performed according to the manufacturer's protocol.
To determine the effect of NAMPT peptides related to signal 1 for the NLRP3 inflammasome in macrophages, LPS-treated BMDMs were exposed to different concentrations of NAMPT peptides (aa 57-65, aa 52-56, or aa 52-65). […] Thus, the TAT-NAMPT peptides were less likely to inhibit the interaction of eNAMPT with TLR4 or CYBB.

[2] = system: NLRP3 inflammasome signal 2; test: NLRP3 inflammasome signal 2 in LPS-primed BMDMs activated with ATP, nigericin or DSS (ELISA, IB); assay type: cell-based, mice
Protocol: as §1, §2
Primary bone marrow-derived macrophages (BMDMs) were harvested from mice and cultured in DMEM in the presence of M-CSF (R&D Systems, 416-ML) for 3 to 5 days. […]
TNF-α, IL-6, IL-1β and IL-18 levels were measured in cell culture supernatants and mouse serum using the BD OptEIA ELISA system (BD Pharmingen). […]

TLR4 = TLR4 (Homo sapiens, UniProt O00206); test: Fluorescence binding titration of labeled TLR4 with unlabeled NAMPT; conditions: fluorescently labeled TLR4 titrated with unlabeled NAMPT, curve fit; read-out: Kd of NAMPT-TLR4 interaction
CYBB = target: T1, CYBB (Homo sapiens, UniProt P04839); test: Fluorescence binding titration of labeled CYBB with unlabeled NAMPT; conditions: fluorescently labeled CYBB titrated with unlabeled NAMPT, curve fit; read-out: Kd of NAMPT-CYBB interaction
T1 sequence (P04839 1-570): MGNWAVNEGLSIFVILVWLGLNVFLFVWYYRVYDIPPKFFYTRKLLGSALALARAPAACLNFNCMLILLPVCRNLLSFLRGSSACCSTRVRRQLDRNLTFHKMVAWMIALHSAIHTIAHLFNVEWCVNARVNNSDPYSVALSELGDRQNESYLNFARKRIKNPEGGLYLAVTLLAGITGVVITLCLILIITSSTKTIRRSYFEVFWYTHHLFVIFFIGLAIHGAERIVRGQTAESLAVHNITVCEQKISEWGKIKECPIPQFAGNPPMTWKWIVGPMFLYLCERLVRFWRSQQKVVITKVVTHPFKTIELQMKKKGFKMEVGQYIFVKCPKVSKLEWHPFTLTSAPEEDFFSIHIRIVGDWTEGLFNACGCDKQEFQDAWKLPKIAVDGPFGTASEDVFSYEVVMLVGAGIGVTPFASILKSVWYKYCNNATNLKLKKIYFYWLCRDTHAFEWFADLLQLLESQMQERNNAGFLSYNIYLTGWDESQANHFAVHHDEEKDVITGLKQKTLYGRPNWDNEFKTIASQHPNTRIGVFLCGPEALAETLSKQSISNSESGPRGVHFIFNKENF

NAMPT-CYBB binding = target: T2, NAMPT-CYBB binding (Homo sapiens, UniProt P04839); test: Co-immunoprecipitation of Myc-NAMPT with V5-CYBB in 293T cells treated with TAT-NAMPT peptides; assay type: cell-based; conditions: Myc-NAMPT and V5-CYBB, peptide 6 hours, 5 μM or 1, 5, 10 μM
T2 construct: The full-length (FL) CYBB and mutant plasmids were constructed as follows; expressed in transfected cells; host or cells: HEK293T (293T)
T2 sequence (P04839 1-570): T1 sequence (P04839 1-570)
Protocol: (§3) FIG. 3 illustrates experimental design and results for identifying an essential region of NAMPT for binding to TLR4 and CYBB. Specifically, (A) Schematic diagram (upper) of the structures of NAMPT and TLR4. 293T cells were transfected with GST-NAMPT or its mutants and Flag-TLR4. GST pulldown was performed with 293T cells and then IB was performed using αFlag. WCLs were used for IB using αGST, αFlag, or αActin (lower, left in A). 293T cells were transfected with Flag-TLR4 or its mutants and Myc-NAMPT. The 293T cells were used for IP with αMyc, followed by IB with αFlag. WCLs were used for IB using αMyc, αFlag or αActin (lower, right in A). (B) 293T cells were transfected with Myc-NAMPT and Flag-TLR4 and treated with NAMPT peptide or its mutants for 6 hours (5 μM, left; 1, 5, 10 μM, right). The 293T cells were used for IP with αFlag, followed by IB with αMyc. WCLs were used for IB using αMyc, αFlag, or αActin. (C) Schematic diagram (upper) of the structures of CYBB. 293T cells were transfected with GST-NAMPT or its mutants and V5-CYBB (lower, left in C). The 293T cells were transfected with GST-CYBB or its mutants and Myc-NAMPT (lower, right in C). The 293T cells were subjected to GST pull-down, followed by IB with αV5 or αMyc. WCLs were used for IB using αGST, αMyc, a V5 or αActin. […]

NAMPT-TLR4 binding = test: Co-immunoprecipitation of Myc-NAMPT with Flag-TLR4 in 293T cells treated with TAT-NAMPT peptides; assay type: cell-based; conditions: Myc-NAMPT and Flag-TLR4, peptide 6 hours, 5 μM or 1, 5, 10 μM
Protocol: as §3

Chain of TLR4 (O00206 24-839, species assumed): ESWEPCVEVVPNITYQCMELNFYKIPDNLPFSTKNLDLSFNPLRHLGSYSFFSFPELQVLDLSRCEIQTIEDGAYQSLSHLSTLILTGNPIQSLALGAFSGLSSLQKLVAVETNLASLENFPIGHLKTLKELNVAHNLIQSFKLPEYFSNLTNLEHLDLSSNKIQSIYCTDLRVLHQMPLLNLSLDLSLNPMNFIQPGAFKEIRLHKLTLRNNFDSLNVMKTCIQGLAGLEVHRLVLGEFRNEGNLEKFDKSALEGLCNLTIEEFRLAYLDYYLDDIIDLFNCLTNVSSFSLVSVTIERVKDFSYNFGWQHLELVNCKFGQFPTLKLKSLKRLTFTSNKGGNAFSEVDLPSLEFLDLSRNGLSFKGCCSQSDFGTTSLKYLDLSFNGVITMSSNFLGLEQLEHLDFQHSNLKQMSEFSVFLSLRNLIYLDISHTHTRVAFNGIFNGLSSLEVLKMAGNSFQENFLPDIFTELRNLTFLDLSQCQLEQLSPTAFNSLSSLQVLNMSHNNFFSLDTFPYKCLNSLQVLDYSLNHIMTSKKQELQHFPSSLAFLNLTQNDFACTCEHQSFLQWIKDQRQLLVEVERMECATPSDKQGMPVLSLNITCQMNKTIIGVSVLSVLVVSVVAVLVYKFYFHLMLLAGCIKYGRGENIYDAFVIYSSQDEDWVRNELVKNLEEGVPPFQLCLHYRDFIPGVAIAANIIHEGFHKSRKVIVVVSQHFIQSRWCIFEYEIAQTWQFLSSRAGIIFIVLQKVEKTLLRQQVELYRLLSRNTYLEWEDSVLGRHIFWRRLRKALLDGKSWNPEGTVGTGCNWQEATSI

Row | Substance | activation of NF-κB [1] | production of cytokines (NF-κB-induced) [1] | generation of ROS [1] | further results
1 | NAMPT peptides aa 52-56: peptide of amino acids 52 to 56 of NAMPT (SEQ ID NO: 1), binds CYBB (VKYEE; listed as Homo sapiens) | partially inhibited | partially inhibited | partially inhibited | –
2 | NAMPT peptides aa 52-65: peptide of amino acids 52 to 65 of NAMPT (SEQ ID NO: 1), binds TLR4 and CYBB (VKYEETVFYGLQYI; listed as Homo sapiens) | – | markedly inhibited | markedly inhibited | action of eNAMPT on NLRP3 inflammasome signal 2 ([2]; FIG. 4D lower, FIG. 4E right): specifically inhibited the action of eNAMPT; ATP-induced caspase-1 cleavage ([2]; LPS-primed BMDMs, ATP 30 minutes): efficiently inhibited; maturation of IL-1β and IL-18 ([2]; LPS-primed BMDMs, ATP, nigericin or DSS stimulation): efficiently inhibited
3 | NAMPT peptides aa 57-65: peptide of amino acids 57 to 65 of NAMPT (SEQ ID NO: 1), binds TLR4 (TVFYGLQYI; listed as Homo sapiens) | partially inhibited | partially inhibited | partially inhibited | –
4 | Nicotinamide phosphoribosyl transferase [NAMPT] | – | – | – | Kd (TLR4): 219 nM; Kd (CYBB): 896 nM
5 | TAT-NAMPT (aa 40-69) (GRKKRRQRRRPQREKKTENSKLRKVKYEETVFYGLQYILNKY) | – | – | – | binding of NAMPT to CYBB (IP/IB) (NAMPT-CYBB binding): bound to CYBB; binding of NAMPT to TLR4 (IP/IB) (NAMPT-TLR4 binding): reduced the binding of NAMPT to TLR4
